Experiments:
[1] = Pharmacokinetics after IV administration to Sprague-Dawley rats; conditions: rat, in vivo; for clearance: read-out: mean Clearance (CL) (converted); for half-life: read-out: mean elimination half-life (T1/2) (converted)
EGFR = target: T1, EGFR (Homo sapiens, UniProt P00533); test: Radiometric kinase assay, EGFR; format: biochemical; conditions: read-out: potency (IC50) over EGFR assay
T1 construct: Recombinant catalytic domain, amino acids 668-1210, GST tagged, purified from insect cells; GST; host or cells: insect cells
T1 sequence (P00533 668-1210): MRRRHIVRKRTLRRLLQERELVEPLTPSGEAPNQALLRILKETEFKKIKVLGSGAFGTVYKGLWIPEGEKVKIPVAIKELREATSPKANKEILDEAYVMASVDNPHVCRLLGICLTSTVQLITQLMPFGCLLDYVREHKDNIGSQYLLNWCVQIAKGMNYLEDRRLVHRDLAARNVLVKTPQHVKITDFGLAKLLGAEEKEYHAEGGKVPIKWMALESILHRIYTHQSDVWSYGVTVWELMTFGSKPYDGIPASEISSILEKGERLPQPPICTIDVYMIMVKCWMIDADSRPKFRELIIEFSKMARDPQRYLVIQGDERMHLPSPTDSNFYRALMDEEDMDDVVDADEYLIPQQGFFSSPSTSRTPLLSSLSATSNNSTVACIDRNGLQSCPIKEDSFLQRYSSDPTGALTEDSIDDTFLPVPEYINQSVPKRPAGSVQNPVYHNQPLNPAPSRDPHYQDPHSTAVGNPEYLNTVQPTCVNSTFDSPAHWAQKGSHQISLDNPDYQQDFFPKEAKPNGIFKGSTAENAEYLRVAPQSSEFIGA
Experimental: (§1) Base Reaction buffer: 20 mM Hepes (pH 7.5), 10 mM MgCl2, 1 mM EGTA, 0.02% Brij35, 0.02 mg/ml BSA, 0.1 mM Na3VO4, 2 mM DTT, 1% DMSO. *Required cofactors are added individually to each kinase reaction
(§2) Prepare indicated substrate in freshly prepared Base Reaction Buffer • Deliver any required cofactors to the substrate solution above • Deliver indicated kinase into the substrate solution and gently mix • Deliver compounds in DMSO into the kinase reaction mixture • Deliver ^33P-ATP (specific activity 0.01 μCi/μl final) into the reaction mixture to initiate the reaction.
Activated in vitro via autophosphorylation. Final concentration in assay=4 nM. Substrate: pEY. Peptide sequence: Poly Glu-Tyr, 4:1 ratio. Final concentration in assay=0.2 mg·mL. 2 mM MnCl2 is added as a cofactor to the reaction mixture
(§3) Compounds in accordance with the practice of the present invention were tested in kinase assays employing high throughput radiometric techniques and nanoliter volume technology (Reaction Biology Corporation, Malvern Pa.).

ErbB2/HER2 = target: T2, ErbB2/HER2 (Homo sapiens, UniProt P04626); test: Radiometric kinase assay, ErbB2/HER2; format: biochemical; conditions: read-out: potency (IC50) over Her-2 assay
T2 construct: Recombinant catalytic domain, amino acids 679-1255, GST tagged, purified from insect cells; GST; host or cells: insect cells
T2 sequence (P04626 679-1255): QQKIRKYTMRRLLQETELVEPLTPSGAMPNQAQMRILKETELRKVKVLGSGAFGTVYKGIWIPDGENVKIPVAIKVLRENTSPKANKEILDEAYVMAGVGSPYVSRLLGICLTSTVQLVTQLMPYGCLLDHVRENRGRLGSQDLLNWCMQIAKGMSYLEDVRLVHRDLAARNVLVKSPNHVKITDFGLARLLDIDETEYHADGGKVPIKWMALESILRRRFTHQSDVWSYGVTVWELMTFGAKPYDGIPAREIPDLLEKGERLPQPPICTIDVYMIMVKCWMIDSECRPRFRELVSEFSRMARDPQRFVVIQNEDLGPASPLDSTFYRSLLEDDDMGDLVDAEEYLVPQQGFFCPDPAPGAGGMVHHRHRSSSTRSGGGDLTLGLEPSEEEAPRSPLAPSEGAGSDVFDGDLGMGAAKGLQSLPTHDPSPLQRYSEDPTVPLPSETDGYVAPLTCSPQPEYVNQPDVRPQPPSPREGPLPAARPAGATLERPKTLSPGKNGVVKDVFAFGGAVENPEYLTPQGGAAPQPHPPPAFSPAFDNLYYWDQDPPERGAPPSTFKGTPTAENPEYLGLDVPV
Experimental: as §1, §2
ErbB2/HER2—Genbank Accession # X03363. […] Final concentration in assay=50 nM. Substrate: pEY. Peptide sequence: Poly Glu-Tyr, 4:1 ratio. Final concentration in assay=0.2 mg·mL. 2 mM MnCl2 is added as a cofactor to the reaction mixture
as §3

A549 = test: Human tumor cell-line growth assay, A549; format: cell-based; conditions: 10-dose, 3-fold dilution starting at 10 μM, read-out: IC50 growth inhibition A549
Experimental: (§4) Invention compounds were tested in human tumor cell-line growth assays.

A431 = test: Human tumor cell-line growth assay, A431; format: cell-based; conditions: A-431, A431 (overexpressing EGFR), 10-dose, 3-fold dilution starting at 10 μM, read-out: IC50 growth inhibition A431
Experimental: as §4

NCI-H1650 = test: Human tumor cell-line growth assay, NCI-H1650; format: cell-based; conditions: NCI-H1650 (EGFR mutant E746-A750), 10-dose, 3-fold dilution starting at 10 μM, read-out: IC50 growth inhibition NCI-H1650
Experimental: as §4

BT-474 = test: Human tumor cell-line growth assay, BT-474; format: cell-based; conditions: BT-474 (overexpressing ErbB2), 10-dose, 3-fold dilution starting at 10 μM, read-out: IC50 growth inhibition BT-474
Experimental: as §4

SKBR3 = test: Human tumor cell-line growth assay, SKBR3; format: cell-based; conditions: SK-BR-3, SKBR3 (overexpressing EGFR and ErbB2), 10-dose, 3-fold dilution starting at 10 μM, read-out: IC50 growth inhibition SKBR3
Experimental: as §4

NCI-H1975 = test: Human tumor cell-line growth assay, NCI-H1975; format: cell-based; conditions: NCI-H1975 (EGFR mutant L858R/T790M), 10-dose, 3-fold dilution starting at 10 μM, read-out: IC50 growth inhibition NCI-H1975
Experimental: as §4

clearance [1] [mL/min/kg] | half-life [1] [h] | IC50 (EGFR) [nM] | IC50 (ErbB2/HER2) [nM] | IC50 (A549) [nM] | IC50 (A431) [nM] | IC50 (NCI-H1650) [nM] | IC50 (BT-474) [nM] | IC50 (SKBR3) [nM] | IC50 (NCI-H1975) [nM] | SMILES
47.1 | 8.76 | < 1000 | < 1000 |  |  |  |  |  |  | [2H]C([2H])([2H])N(C/C=C/C(=O)Nc1cc2c(Nc3cccc(C#C)c3)c(C#N)cnc2cc1OCC)C([2H])([2H])[2H] [Compound B, (E)-N-(3-cyano-7-ethoxy-4-(3-ethynylphenylamino)quinolin-6-yl)-4-(dimethyl-d6-amino)but-2-enamide]
59.7 | 5.37 | < 1000 | < 1000 | < 1000 | < 1000 | < 10000 | < 1000 | < 1000 | < 10000 | C#Cc1cccc(Nc2c(C#N)cnc3cc(OCC)c(NC(=O)/C=C/CN(C)C)cc23)c1 [Compound C, (E)-N-(3-cyano-7-ethoxy-4-(3-ethynylphenylamino)quinolin-6-yl)-4-(dimethylamino)but-2-enamide]
 | 5.28 |  |  |  |  |  |  |  |  | CCOc1cc2ncc(C#N)c(Nc3ccc(OCc4ccccn4)c(Cl)c3)c2cc1NC(=O)/C=C/CN(C)C [HKI272, reference compound]
 |  | < 1000 | < 1000 |  |  |  |  |  |  | [2H]C([2H])([2H])N(C/C=C/C(=O)Nc1cc2c(Nc3ccc(OCc4ccccn4)c(Cl)c3)c(C#N)cnc2cc1OCCOC)C([2H])([2H])[2H] [Example 7]
 | 6.59 |  |  |  |  |  |  |  |  | [2H]C([2H])([2H])N(C/C=C/C(=O)Nc1cc2c(Nc3ccc(OCc4ccccn4)c(Cl)c3)c(C#N)cnc2cc1OCC)C([2H])([2H])[2H] [Compound A, (E)-N-{4-[3-chloro-4-(2-pyridinylmethoxy)aniline]-3-cyano-7-ethoxy-6-quinolinyl}-4-(dimethyl-d6-amino)-2-butenamide]
